Test results as given in patent US20240287123A1 (Victoria Link Limited, priority 2021, published 2024).
“Also recorded” adds a separate entry of the source. Like-named read-outs stand apart in the source and are kept apart here.

What was measured:
EBV (Akata/Akata) = experiment: EBV assay: viral DNA quantification in induced Akata cells; type: cell-based, Epstein-Barr virus; conditions: for activity against EBV: cell-based assay, highest concentration tested in primary assays 50 μM
Protocol: Akata cells were obtained from Louisiana State University, Baton Rouge, LA. The HCMV strain AD169 was obtained from the American Type Culture Collection (ATCC, Manassas, VA). Akata cells latently infected with EBV were obtained from Louisiana State University, Baton Rouge, LA.
(§1) Each experiment that evaluates the antiviral activity of compounds includes both positive and negative control compounds to ensure the performance of each assay. Concurrent assessment of cytotoxicity was also performed for each study in the same cell line and with the same compound exposure.
Assays for EBV were performed by reported methods.^37 Akata cells were induced to undergo a lytic infection with 50 μg/ml of a goat anti-human IgG antibody. Experimental compounds were diluted within plates. The cells were added and incubated for 72 h. Similar plates were initiated without virus induction/addition and used for measuring cytotoxicity by the addition of CTG. For all assays, the replication of the virus was assessed by the quantification of viral DNA. For EBV, primers 5′-[…]-3′ and 5′-CAG TTC CTC GCCTTAGGTTG-3 amplified a fragment corresponding to coordinates 96802-97234 in EBV genome (AJ507799). Compound concentrations sufficient to reduce genome copy number by 50% were calculated from experimental data as well as compound cytotoxicity.

[1] = Cytotoxicity in Akata cells (CTG), concurrent with EBV assay; type: cell-based; conditions: human, Table 1
Protocol: as §1
Assays for EBV were performed by reported methods.^37 Akata cells were induced to undergo a lytic infection with 50 μg/ml of a goat anti-human IgG antibody. Experimental compounds were diluted within plates. The cells were added and incubated for 72 h. Similar plates were initiated without virus induction/addition and used for measuring cytotoxicity by the addition of CTG. For all assays, the replication of the virus was assessed by the quantification of viral DNA. […] Compound concentrations sufficient to reduce genome copy number by 50% were calculated from experimental data as well as compound cytotoxicity.

HHV-6B (Z29; MOLT-3) = experiment: HHV-6B antiviral assay (Z29; MOLT-3); type: cell-based, human betaherpesvirus 6B
primary human MDM = experiment: Toxicity to MDM: LDH assay and light microscopy; type: cell-based
Protocol: Light microscopy was used to image MDMs on day 7 of infection. […] Colorimetric LDH assays were also performed on culture supernatants from these same cells on day 4 of infection to assess cell death.
At the end of each experiment, cells were imaged by light microscopy. After aspirating off media, cells were washed with PBS, and lysates were harvested in extraction buffer containing 0.1% Formic acid, 50% ACN, 40% MeOH, 10% H2O.
Drug toxicity was analyzed using an LDH assay kit according to manufacturer's instructions (Abcam #ab65393, Toronto, Canada). Briefly, supernatants from duplicate plates per treatment condition were added to a 96-well plate. Each supernatant was run in triplicate. Provided assay buffer was added to culture supernatants after mixing with a substrate solution that turns orange upon lactate exposure. After incubation for 30-45 min, colorimetric signal was quantified an OD of 450 nm. LDH was a positive control as well as cells lysed with 10% lysis buffer in media representing the “high control” to which % cytotoxicity was measured. The reference sample was either control uninfected cells treated with DMSO or negative control HIV-infected cells treated with DMSO. Culture media alone was used as a technical negative control. This background signal that was subtracted from all test wells.

HIVADA = experiment: HIV p24 alphaLISA in infected monocyte derived macrophages; type: cell-based, Human Immunodeficiency Virus
Protocol: Primary human MDMs were cultured from peripheral blood mononuclear cells and pre-treated for 24 h with ddhC (100 μM), compound 8 (100 μM), compound 21 (100 μM), emtricitabine control (15 μM, 10 μM, 1 μM, 0.1 μM), or the drug vehicle, DMSO. MDM were then infected with HIVADA in the presence of these compounds and treated daily (with compound), while culture supernatants were collected to quantify levels of HIV p24, a viral capsid protein, on days 2-7 of infection.
Leukopaks from healthy donors were obtained from the New York Blood Center and processed by Ficoll gradient centrifugation to isolate peripheral blood mononuclear cells (PBMC). These PBMC were cultured adherently into monocyte derived macrophages (MDM), according to published protocols, on 60 mm dishes for 6 days with 10-20 ng/ml macrophage colony stimulating factor (M-CSF). MDM were pre-treated with ddhC, compound 8, compound 21, emtricitabine (Cat. No .: 10071), or DMSO vehicle at indicated concentrations for 24 hours (NIH AIDS Reagent Program, Bethesda, MD). Cells were left uninfected or infected for 24 h in the presence of one of the compounds listed above with 20 ng/mL HIVADA, a macrophage-tropic HIV strain originally derived from a person with HIV (NIH). Media was changed daily with the mentioned compounds added each time, and supernatants were collected on days 2, 3, 4, 5, 6, and 7 of infection. Each treatment condition was analyzed in duplicate plates per experiment.
Supernatant samples were analyzed for the viral capsid protein, HIV p24, by a sensitive p24 alphaLISA according to the manufacturer's protocol (Perkin-Elmer, Waltham, MA). Treatment conditions were analyzed in duplicate plates, and each supernatant was analyzed in duplicate on a 96-well alphaLISA plate. These were then fit to a sigmoid standard curve to extrapolate HIV p24 levels in pg/mL within the assay limits of detection.

[2] = human gammaherpesvirus 4, Akata, read-out: Result for compound (EC50/UM), EBV Akata/Akata, assay order Secondary
[3] = human gammaherpesvirus 4, Akata, Akata/Akata, Table 1, read-out: EBV EC50
[4] = human gammaherpesvirus 4, Akata, read-out: EC50 against EBV
[5] = human gammaherpesvirus 4, Akata, read-out: Result for compound (EC50/UM), EBV Akata/Akata, assay order Primary
[6] = human gammaherpesvirus 4, Akata, EBV Akata/Akata, assay order Secondary, read-out: Result for compound (EC50/UM)

Compound: CC(C)(C)C(=O)SCCOP(=O)(OCCSC(=O)C(C)(C)C)OCC1=C[C@@H](O)[C@H](n2ccc(NO)nc2=O)O1
- EC50 (EBV (Akata/Akata); [2]): 16.6 µM

Compound: Nc1ccn(C[C@@H](CO)OCP(=O)(O)O)c(=O)n1 [Cidofovir, cidofovir, reference compound]
- CC50 at 72 h ([1]; Akata cells (without virus induction)): > 100 µM
- EC50 (EBV (Akata/Akata); EBV Akata/Akata, control run alongside, Primary, read-out: CDV control result (EC50/UM)): 2.58 µM
- EC50 (EBV (Akata/Akata); EBV Akata/Akata, control run alongside, Secondary, read-out: CDV control result (EC50/UM)): 1.93 µM
- EC50 (EBV (Akata/Akata); [3]): 8.25 µM
- EC50 (EBV (Akata/Akata); [4]): 8.25 µM
- EC50 (EBV (Akata/Akata); read-out: CDV control result (EC50/UM), EBV Akata/Akata, control run alongside, Secondary): 5.95 µM
- EC50 (HHV-6B (Z29; MOLT-3); cidofovir (CDV) control, MOLT-3, HHV-6B, control run alongside, Primary, read-out: CDV control result (EC50/UM)): 3.42 µM
- EC50 (HHV-6B (Z29; MOLT-3); cidofovir (CDV) control, MOLT-3, HHV-6B, control run alongside, Secondary, read-out: CDV control result (EC50/UM)): 4.26 µM

Compound: CC(C)OC(=O)[C@H](C)N[P@](=O)(OCC1=C[C@@H](O)[C@H](n2ccc(N)nc2=O)O1)Oc1ccccc1 [Compound 21, 3′-Deoxy-3′,4′-didehydrocytidine-5′-O-[phenyl(isopropoxy-L-alaninyl) ]-Sp-phosphoramidate]
- CC50 at 72 h [1]: > 50 µM
- LDH activity in HIV-infected MDMs relative to DMSO controls (primary human MDM; 100 μM, day 4 of infection): nearly identical
- toxicity to MDMs (primary human MDM; 100 uM, visual inspection by light microscopy and colorimetric LDH assays): non-toxic
- activity against EBV (EBV (Akata/Akata)): more weakly inhibiting
- EC50 (EBV (Akata/Akata); [3]): 23.7 µM
- EC50 (EBV (Akata/Akata); [5]): 23.8 µM
- EC50 (EBV (Akata/Akata); [4]): 7.6 to 38.7 µM
- levels of HIV p24 viral capsid protein (HIVADA; 100 μM, infected MDM, days 2-7, compared with DMSO control): significantly reduce; also recorded: significantly decreased
- impact on HIV replication relative to the DMSO control (HIVADA; low doses: compound 8 compound 21 (0.1-1 μM) as printed): minimal impact

Compound: CC(C)(C)C(=O)OCC1=C[C@@H](O)[C@H](n2ccc(N)nc2=O)O1 [Compound 25]
- activity against EBV (EBV (Akata/Akata)): comparably active

Compound: CCCCCC(=O)OCC1=C[C@@H](O)[C@H](n2ccc(N)nc2=O)O1 [Compound 27]
- activity against EBV (EBV (Akata/Akata)): inactive

Compound: CC(C)[C@H](N)C(=O)OCC1=C[C@@H](O)[C@H](n2ccc(N)nc2=O)O1 [Compound 30, 3′,4′-Didehydro-3′-deoxy-5′-O-L-valinoylcytidine]
- activity against EBV (EBV (Akata/Akata)): comparably active

Compound: CCC(CC)COC(=O)[C@H](C)N[P@](=O)(OCC1=C[C@@H](O)[C@H](n2ccc(N)nc2=O)O1)Oc1ccccc1 [Compound 32, 3′,4′-Didehydro-3′-deoxycytidine-5′-0-{phenyl [2-(ethyl)but-1-yloxy-L-alaninyl] }-Sp-phosphoramidate]
- activity against EBV (EBV (Akata/Akata)): not active

Compound: CC(C)(C)C(=O)OCOP(=O)(OCOC(=O)C(C)(C)C)OCC1=C[C@@H](O)[C@H](n2ccc(N)nc2=O)O1 [Compound 35, 3′,4′-Didehydro-3′-deoxycytidine-5′-bis(pivaloyloxymethyl)phosphate]
- activity against EBV (EBV (Akata/Akata)): inactive

Compound: CC(C)C(=O)OCC1=CC[C@H](n2ccc(N)nc2=O)O1 [Compound 39, 3′,4′-Didehydro-2′,3′-dideoxy-5′-O-isobutyroylcytidine]
- activity against EBV (EBV (Akata/Akata)): activity comparable to their 2′-hydroxylated analogues
- activity against HHV-6B (HHV-6B (Z29; MOLT-3)): active
- EC50 (HHV-6B (Z29; MOLT-3); Human betaherpesvirus 6B, MOLT-3, HHV-6B Z29, MOLT-3, Primary, read-out: Result for compound (EC50/UM)): 5.54 µM
- EC50 (HHV-6B (Z29; MOLT-3); Human betaherpesvirus 6B, MOLT-3, HHV-6B Z29, MOLT-3, Secondary, read-out: Result for compound (EC50/UM)): 16.7 µM

Compound: Nc1ccn([C@H]2CC=C(CO)O2)c(=O)n1 [Compound A-30, 3′,4′-Didehydro-2′,3′-dideoxycytidine]
- activity against EBV (EBV (Akata/Akata)): activity comparable to their 2′-hydroxylated analogues

Compound: CC(C)C(=O)OCC1=C[C@@H](O)[C@H](n2ccc(N)nc2=O)O1 [drawing 64, 3′-Deoxy-3′,4′-didehydro-5′-O-isobutyroyl-cytidine]
- EC50 (EBV (Akata/Akata); [6]): 16.1 µM

Compound: CC(=O)OCC1=C[C@@H](O)[C@H](n2ccc(N)nc2=O)O1 [drawing 67]
- EC50 (EBV (Akata/Akata); [5]): 8.96 µM

Compound: CC(=O)OCC1=C[C@@H](O)[C@H](n2ccc(N)nc2=O)O1 [drawing 68]
- EC50 (EBV (Akata/Akata); [2]): 7.96 µM

Compound: CC(C)(C)C(=O)OCC1=C[C@@H](O)[C@H](n2ccc(N)nc2=O)O1 [drawing 69]
- EC50 (EBV (Akata/Akata); [6]): 15.9 µM

Compound: CC(C)[C@H](N)C(=O)OCC1=C[C@@H](O)[C@H](n2ccc(N)nc2=O)O1 [drawing 70]
- EC50 (EBV (Akata/Akata); [6]): 18.5 µM

Compound: Nc1ccn([C@H]2CC=C(CO)O2)c(=O)n1 [drawing 72, 3′,4′-Didehydro-2′,3′-dideoxycytidine]
- EC50 (EBV (Akata/Akata); [5]): 29.6 µM

Compound: CC(C)C(=O)OCC1=CC[C@H](n2ccc(N)nc2=O)O1 [drawing 73, 3′,4′-Didehydro-2′,3′-dideoxy-5′-O-isobutyroylcytidine]
- EC50 (EBV (Akata/Akata); [5]): 6.31 µM

Compound: CC(C)C(=O)OCC1=CC[C@H](n2ccc(N)nc2=O)O1 [drawing 74, 3′,4′-Didehydro-2′,3′-dideoxy-5′-O-isobutyroylcytidine]
- EC50 (EBV (Akata/Akata); [6]): 7.09 µM

Compound: CCCCCC(=O)OCC1=C[C@@H](O)[C@H](n2ccc(N)nc2=O)O1 [drawing 75]
- EC50 (EBV (Akata/Akata); [5]): > 50 µM

Compound: CC(C)(C)C(=O)OCOP(=O)(OCOC(=O)C(C)(C)C)OCC1=C[C@@H](O)[C@H](n2ccc(N)nc2=O)O1 [drawing 76]
- EC50 (EBV (Akata/Akata); [5]): > 50 µM

Compound: CCC(CC)COC(=O)[C@H](C)N[P@](=O)(OCC1=C[C@@H](O)[C@H](n2ccc(N)nc2=O)O1)Oc1ccccc1 [drawing 77]
- EC50 (EBV (Akata/Akata); [5]): > 50 µM
